From patent US20160009763A1, “PEPTIDE MOLECULAR MATERIALS” (National Chiao Tung University, priority 2014, published 2016)
Non-standard residues stand in square brackets, D forms with d. Residues, ends and D or L forms follow the SMILES beside them. ξ: configuration not given here. *: point of attachment. Phenylacetyl(2,3,4,5,6-F5) = O=C(Cc1c(F)c(F)c(F)c(F)c1F)*; Phenylacetyl(4-F) = O=C(Cc1ccc(F)cc1)*; Hydrocinnamoyl = O=C(CCc1ccccc1)*; Ile(3ξ) = CCC(C)[C@H](N)C(=O)O; PhAc = O=C(Cc1ccccc1)*; Bz = O=C(c1ccccc1)*

Assays:
[1] = Rheological test of hydrogels (angular frequency sweep); format: physicochemical; conditions: angular frequency sweep 0.1 to 100 rad/s, strain=0.8%, 25° C.
Experimental: In the present invention, Rheological test was performed by Anton Paar rheometer. MTT cell viability assay was performed by Sunrise absorbance microplate reader (DV990/BV4 GDV Programmable MPT reader).
Rheological tests of hydrogels were performed by Anton Paar rheometer. 25 mm parallel plate was used in the experimentation. 400 μL of hydrogels (A) to (R) were placed on the parallel plate. Angular frequency sweep test: measurement range (frequency 0.1 to 100 rad/s, strain=0.8%) is 13 points per 10 rounds. Sweep model is “logarithm (log)” and the operation temperature is 25° C.
In FIG. 3, G′ represents storage modulus, and G″ represents loss modulus. The higher G′ and G″ are, the better stability the hydrogel is.

Hela cell [2] = assay: Wound healing assay, Hela cell; format: cell-based; conditions: medium with 1 wt % of hydrogel
Experimental: Various cells were washed with PBS (phosphate buffer) twice and were suspended in a T-75 tissue culture flask. 0.25% trypsin containing 0.1% EDTA was added and then the cells were re-suspended in 5 mL of complete medium. 30000 cells (in 3 mL of medium) were placed in each vial on a 6-well plate to form a fusion monolayer. […] 2 mL of PBS was used twice to remove the floating cells, and was then replaced with 3 mL of complete medium. The image taken at 0 hour was used as a reference point. […] The images at different hours were taken at an appropriate region. Control: no compound added.

[3] = Phase inversion temperature (Tgel-sol) test of hydrogels; format: physicochemical; conditions: heated 2° C./min until hydrogel began to flow
Experimental: Hydrogels (A) to (R) were obliquely placed in water bath while a beaker including water and a thermometer was also placed in the water bath. The hydrogels were heated (2° C./min) until such hydrogels began to flow (the gel phase was changed to the sol phase). The inversion temperatures when the hydrogels began to flow were recorded, and such temperatures were the phase inversion temperatures of hydrogels.

[4] = MTT cell viability assay, MCF-7 cell; format: cell-based; conditions: human, MCF-7 cells, hydrogel up to 500 μM
Experimental: (§1) The bio-compatibility of the hydrogels prepared from the different peptide materials was measured by MTT cell viability assay.
(§2) MTT cell viability assay was performed by Sunrise absorbance microplate reader (DV990/BV4 GDV Programmable MPT reader). Various cells were seeded in a 24-well plate containing 0.5 mL medium (DMEM) with 10% fetal bovine serum (FBS) and 1% penicillin. In each well, the cell concentration was 50000 cells and cells were cultured for 24 hours. After seeding the cells, hydrogels with the different concentrations ([…]) were added. The medium in each well was replaced with the flesh medium containing 0.5 mL of MTT reagent (4 mg mL^−1) after 24 and 48 hours. After an additional 4 hours, the medium containing MTT reagent was removed and DMSO (0.5 mL/well) was added to dissolve formazan crystals. The cells in the 24-well plate were transferred to a 96-well plate. The optical densities of such obtained solutions were measured at 595 nm by Sunrise absorbance microplate reader (DV990/BV4 GDV Programmable MPT reader).
(§3) The untreated cells were used as a comparative example. The cell viability was calculated based on the following equation:
(§4) Cell viability(%)=ODsample/ODcomparative example

MCF-7 cell = assay: MTT cell viability assay, MCF-7 cell; format: cell-based; conditions: Homo sapiens, MCF7, read-out: IC50 inhibition concentration
Experimental: as §1, §2, §3, §4

CTX TNA2 cell [5] = assay: MTT cell viability assay, CTX TNA2 cell; format: cell-based; conditions: read-out: IC50 inhibition concentration
Experimental: as §1, §2, §3, §4

[6] = MTT cell viability assay, CTX TNA2 cell; format: cell-based; conditions: rat, CTX TNA2 cells, hydrogel up to 500 μM
Experimental: as §1, §2, §3, §4

CTX TNA2 cell [7] = assay: Wound healing assay, CTX TNA2 cell; format: cell-based; conditions: medium with 1 wt % of hydrogel, versus Control
Experimental: Various cells were washed with PBS (phosphate buffer) twice and were suspended in a T-75 tissue culture flask. 0.25% trypsin containing 0.1% EDTA was added and then the cells were re-suspended in 5 mL of complete medium. 30000 cells (in 3 mL of medium) were placed in each vial on a 6-well plate to form a fusion monolayer. After the adhesion for 24 hours, the cell monolayer was scratched by a p200 pipet tip to create a wound. 2 mL of PBS was used twice to remove the floating cells, and was then replaced with 3 mL of complete medium. The image taken at 0 hour was used as a reference point. The medium was replaced with 3 mL of medium containing 1 wt % of hydrogel and the plate was incubated at 37° C. and 5% CO2 for 24 hours. The images at different hours were taken at an appropriate region. Control: no compound added.

Hela cell [8] = assay: MTT cell viability assay, Hela cell; format: cell-based; conditions: Homo sapiens, read-out: IC50 inhibition concentration
Experimental: as §1, §2, §3, §4

[9] = MTT cell viability assay, Hela cell; format: cell-based; conditions: human, HeLa cells, hydrogel up to 500 μM
Experimental: as §1, §2, §3, §4

[10] = State of hydrogels at 37° C. and 4° C. (TEM images); format: physicochemical
Experimental: The material, technique and general process in the present invention are suitable for the following examples. All used chemical reagents and solutions can be obtained from suppliers. ^1H and ^13C spectrums were measured by Bruker DRX-300. LC-MS was measured by MICROMASS Q-Tof. TEM was measured by Hitachi HT7700 Bio-transmission electron microscope.

storage modulus (G′) [1] | phase inversion temperature Tgel-sol [3] | SMILES | also measured
2×10^3 Pa | 56 °C | O=C(Cc1c(F)c(F)c(F)c(F)c1F)N[C@@H](Cc1ccccc1)C(=O)O [hydrogel (A), PFB-Phe] | wound healing after 48 hours (Hela cell [2]): healed completely
10^4 Pa | 48 °C | O=C(O)CNC(=O)[C@H](Cc1ccccc1)NC(=O)Cc1c(F)c(F)c(F)c(F)c1F [hydrogel (B), PFB-Phe-Gly] | wound healing after 48 hours (Hela cell [2]): healed completely
5×10^3 Pa | 43 °C | O=C(Cc1c(F)c(F)c(F)c(F)c1F)N[C@@H](Cc1ccc(O)cc1)C(=O)N[C@@H](Cc1ccccc1)C(=O)O [hydrogel (C), PFB-Tyr-Phe] | viability [4]: ~100%; IC50 (MCF-7 cell): > 500 µM; wound healing after 48 hours (Hela cell [2]): healed completely; IC50 (CTX TNA2 cell [5]): > 500 µM; viability [6]: ~100%; healing effect (CTX TNA2 cell [7]): better than that of Control; IC50 (Hela cell [8]): > 500 µM; viability [9]: ~100%
2×10^4 Pa | 45 °C | O=C(Cc1c(F)c(F)c(F)c(F)c1F)N[C@@H](Cc1ccccc1)C(=O)N[C@@H](Cc1ccccc1)C(=O)O [hydrogel (D), PFB-Phe-Phe] | –
4×10^3 Pa | 48 °C | C[C@H](NC(=O)[C@H](Cc1ccccc1)NC(=O)Cc1c(F)c(F)c(F)c(F)c1F)C(=O)O [hydrogel (E), PFB-Phe-Ala] | wound healing after 48 hours (Hela cell [2]): healed completely
3×10^3 Pa | 46 °C | CC(C)[C@H](NC(=O)[C@H](Cc1ccccc1)NC(=O)Cc1c(F)c(F)c(F)c(F)c1F)C(=O)O [hydrogel (F), PFB-Phe-Val] | wound healing after 48 hours (Hela cell [2]): healed completely
6×10^4 Pa | 72 °C | CC(C)[C@H](NC(=O)Cc1c(F)c(F)c(F)c(F)c1F)C(=O)N[C@@H](Cc1ccccc1)C(=O)O [hydrogel (G), PFB-Val-Phe] | –
1×10^4 Pa | 71 °C | CCC(C)[C@H](NC(=O)Cc1c(F)c(F)c(F)c(F)c1F)C(=O)N[C@@H](Cc1ccccc1)C(=O)O (stereo partly shown) [hydrogel (H), PFB-Ile-Phe] | –
2×10^3 Pa | 55 °C | CC(C)C[C@H](NC(=O)Cc1c(F)c(F)c(F)c(F)c1F)C(=O)N[C@@H](Cc1ccccc1)C(=O)O [hydrogel (I), PFB-Leu-Phe] | state of hydrogel at 4° C. [10]: liquid; state of hydrogel at 37° C. [10]: colloidal state
7×10^2 Pa | 69 °C | CC(C)C[C@@H](NC(=O)Cc1c(F)c(F)c(F)c(F)c1F)C(=O)N[C@H](Cc1ccccc1)C(=O)O [hydrogel (J), PFB-D-L-D-F] | –
6×10^3 Pa | 46 °C | O=C(Cc1ccc(F)cc1)N[C@@H](Cc1ccccc1)C(=O)N[C@@H](Cc1ccccc1)C(=O)O [hydrogel (K), 4-Fluorobenzyl-Phe-Phe] | –
4×10^2 Pa | 38 °C | O=C(Cc1c(F)c(F)c(F)c(F)c1F)NCC(=O)N[C@@H](Cc1ccccc1)C(=O)N[C@@H](Cc1ccccc1)C(=O)O [hydrogel (L), PFB-Gly-Phe-Phe] | state of hydrogel at 4° C. [10]: liquid; state of hydrogel at 37° C. [10]: colloidal state
1×10^3 Pa | 42 °C | CCC(C)[C@H](NC(=O)Cc1c(F)c(F)c(F)c(F)c1F)C(=O)N[C@@H](CCCCN)C(=O)N[C@H](C(=O)N[C@@H](C)C(=O)N[C@H](C(=O)O)C(C)C)C(C)C (stereo partly drawn) [hydrogel (M), PFB-Ile-Lys-Val-Ala-Val] ({Phenylacetyl(2,3,4,5,6-F5)}-[Ile(3ξ)]KVAV-OH) | –
1×10^4 Pa | 66 °C | CCC(C)[C@H](NC(=O)Cc1ccc(F)cc1)C(=O)N[C@@H](CCCCN)C(=O)N[C@H](C(=O)N[C@@H](C)C(=O)N[C@H](C(=O)O)C(C)C)C(C)C (stereo partly drawn) [hydrogel (N), 4-Fluorophenylacetic Acid-Ile-Lys-Val-Ala-Val] ({Phenylacetyl(4-F)}-[Ile(3ξ)]KVAV-OH) | –
6×10^3 Pa | 62 °C | CCC(C)[C@H](NC(=O)c1ccccc1)C(=O)N[C@@H](CCCCN)C(=O)N[C@H](C(=O)N[C@@H](C)C(=O)N[C@H](C(=O)O)C(C)C)C(C)C (stereo partly drawn) [hydrogel (O), Benzoic Acid-Ile-Lys-Val-Ala-Val] (Bz-[Ile(3ξ)]KVAV-OH) | –
6×10^3 Pa | 65 °C | CCC(C)[C@H](NC(=O)Cc1ccccc1)C(=O)N[C@@H](CCCCN)C(=O)N[C@H](C(=O)N[C@@H](C)C(=O)N[C@H](C(=O)O)C(C)C)C(C)C (stereo partly drawn) [hydrogel (P), Phenylacetic Acid-Ile-Lys-Val-Ala-Val] (PhAc-[Ile(3ξ)]KVAV-OH) | –
1×10^4 Pa | > 90 °C | CCC(C)[C@H](NC(=O)CCc1ccccc1)C(=O)N[C@@H](CCCCN)C(=O)N[C@H](C(=O)N[C@@H](C)C(=O)N[C@H](C(=O)O)C(C)C)C(C)C (stereo partly drawn) [hydrogel (Q), 3-Phenylpropionic Acid-Ile-Lys-Val-Ala-Val] (Hydrocinnamoyl-[Ile(3ξ)]KVAV-OH) | –
1.0×10^3 Pa | 40 °C | CCC(C)[C@H](NC(=O)[C@H](Cc1ccccc1)NC(=O)Cc1c(F)c(F)c(F)c(F)c1F)C(=O)N[C@@H](CCCCN)C(=O)N[C@H](C(=O)N[C@@H](C)C(=O)N[C@H](C(=O)O)C(C)C)C(C)C (stereo partly drawn) [hydrogel (R), PFB-Phe-Ile-Lys-Val-Ala-Val] ({Phenylacetyl(2,3,4,5,6-F5)}-F[Ile(3ξ)]KVAV-OH) | –
